According to ChEMBL document CHEMBL3885861, “Open TG-GATES”:

Species: Rattus norvegicus
Assay: Open TG-GATES - Regimen: Daily Repeat
Assay type: toxicity, organism-based, Sprague-Dawley
Design: regimen Daily Repeat, gender Male, age 6 weeks
Conditions: in vivo, po, 0 mg/kg, route gavage, dose level Control; for APTT / Bas / Eos / Fbg / Hb / Lym / MCH / MCHC / MCV / Mono / Neu / PT / Plat / RBC / Ret / WBC: tissue Blood; for KIDNEY_L / KIDNEY_R / KIDNEY_TOTAL: tissue Kidney; for LIVER: tissue Liver; for ALP / ALT / AST / BUN / CRE / Ca / Cl / DBIL / GLC / IP / K / LDH / Na / PL / RALB / TBIL / TC / TG / TP / gamma-GTP: tissue Plasma

## OCCN1CCN(CCCN2c3ccccc3Sc3ccc(C(F)(F)F)cc32)CC1 [FLUPHENAZINE]
72 h, time 3 day
  TERMINAL_BW: 233.9 g
  APTT: 16.9 s
  Bas: 0%
  Eos: 1%
  Fbg: 232.5 mg/dL
  Hb: 13.6 g/dL
  Lym: 77%
  MCH: 21.5 pg
  MCHC: 33.3%
  MCV: 64.4 fL
  Mono: 7.2%
  Neu: 15%
  PT: 12 s
  Plat: 126.3 x10_4/uL
  RBC: 632.2 x10_4/ul
  Ret: 6.2%
  WBC: 99.4 x10_2/uL
  KIDNEY_L: 1.1 g
  KIDNEY_R: 1.1 g
  KIDNEY_TOTAL: 2.2 g
  LIVER: 11.9 g
  ALP: 922 IU/L
  ALT: 35.2 IU/L
  AST: 60.2 IU/L
  BUN: 17.2 mg/dL
  CRE: 0.6 mg/dL
  Ca: 10.8 mg/dL
  Cl: 104.5 meq/L
  DBIL: 0.035 mg/dL
  GLC: 185 mg/dL
  IP: 8.5 mg/dL
  K: 4.9 meq/L
  LDH: 77.2 IU/L
  Na: 137.8 meq/L
  PL: 163 mg/dL
  RALB: 4 g/dL
  TBIL: 0.3 mg/dL
  TC: 86.2 mg/dL
  TG: 96.8 mg/dL
  TP: 5.8 g/dL
  gamma-GTP: 0.5 IU/L
[…], time 7 day
  TERMINAL_BW: 262.6 g
  APTT: 16.3 s
  Bas: 0%
  Eos: 1%
  Fbg: 239.4 mg/dL
  Hb: 13.5 g/dL
  Lym: 80.6%
  MCH: 21.6 pg
  MCHC: 33.5%
  MCV: 64.4 fL
  Mono: 4%
  Neu: 15.2%
  PT: 11.9 s
  Plat: 114.7 x10_4/uL
  RBC: 627.6 x10_4/ul
  Ret: 5.2%
  WBC: 114 x10_2/uL
  KIDNEY_L: 1.2 g
  KIDNEY_R: 1.2 g
  KIDNEY_TOTAL: 2.3 g
  LIVER: 13.1 g
  ALP: 774.2 IU/L
  ALT: 30.4 IU/L
  AST: 61.6 IU/L
  BUN: 18.4 mg/dL
  CRE: 0.5 mg/dL
  Ca: 10.5 mg/dL
  Cl: 106.2 meq/L
  DBIL: 0.016 mg/dL
  GLC: 196.2 mg/dL
  IP: 8.4 mg/dL
  K: 4.6 meq/L
  LDH: 82.6 IU/L
  Na: 138.8 meq/L
  PL: 156 mg/dL
  RALB: 3.9 g/dL
  TBIL: 0.3 mg/dL
  TC: 79.4 mg/dL
  TG: 101 mg/dL
  TP: 5.9 g/dL
  gamma-GTP: 1.6 IU/L
[…], time 14 day
  TERMINAL_BW: 300.9 g
  APTT: 17.2 s
  Bas: 0%
  Eos: 0.6%
  Fbg: 235.6 mg/dL
  Hb: 14.2 g/dL
  Lym: 82.8%
  MCH: 20.3 pg
  MCHC: 33.3%
  MCV: 61.1 fL
  Mono: 5.4%
  Neu: 11%
  PT: 11.7 s
  Plat: 107.2 x10_4/uL
  RBC: 699.2 x10_4/ul
  Ret: 3.7%
  WBC: 145.4 x10_2/uL
  KIDNEY_L: 1.2 g
  KIDNEY_R: 1.2 g
  KIDNEY_TOTAL: 2.4 g
  LIVER: 13.9 g
  ALP: 734.4 IU/L
  ALT: 30.6 IU/L
  AST: 55.8 IU/L
  BUN: 19.8 mg/dL
  CRE: 0.5 mg/dL
  Ca: 11 mg/dL
  Cl: 102.6 meq/L
  DBIL: 0 mg/dL
  GLC: 186.6 mg/dL
  IP: 8.5 mg/dL
  K: 4.5 meq/L
  LDH: 97.4 IU/L
  Na: 135.8 meq/L
  PL: 166 mg/dL
  RALB: 4.2 g/dL
  TBIL: 0.3 mg/dL
  TC: 77 mg/dL
  TG: 181.8 mg/dL
  TP: 6.2 g/dL
  gamma-GTP: 1.4 IU/L
[…], time 28 day
  TERMINAL_BW: 402.6 g
  APTT: 17.2 s
  Bas: 0%
  Eos: 1%
  Fbg: 231 mg/dL
  Hb: 15.2 g/dL
  Lym: 84.8%
  MCH: 19.7 pg
  MCHC: 33.4%
  MCV: 58.8 fL
  Mono: 4.8%
  Neu: 9.8%
  PT: 11.8 s
  Plat: 92.5 x10_4/uL
  RBC: 774 x10_4/ul
  Ret: 2.7%
  WBC: 160.8 x10_2/uL
  KIDNEY_L: 1.5 g
  KIDNEY_R: 1.5 g
  KIDNEY_TOTAL: 2.9 g
  LIVER: 17.1 g
  ALP: 649.8 IU/L
  ALT: 32.2 IU/L
  AST: 57 IU/L
  BUN: 20.6 mg/dL
  CRE: 0.6 mg/dL
  Ca: 10.8 mg/dL
  Cl: 104.8 meq/L
  DBIL: 0.01 mg/dL
  GLC: 197.4 mg/dL
  IP: 7 mg/dL
  K: 4.5 meq/L
  LDH: 80 IU/L
  Na: 140.8 meq/L
  PL: 171.6 mg/dL
  RALB: 4.1 g/dL
  TBIL: 0.3 mg/dL
  TC: 74.6 mg/dL
  TG: 216 mg/dL
  TP: 6.4 g/dL
  gamma-GTP: 1 IU/L
